Laboratory results as given in US7612079B2, “2,6,9-substituted purine derivatives and their use in the treatment of proliferative disorders” (Cyclacel Limited, priority 2001, dated 2009).

Legend:
KM12 = experiment: 72-h MTT proliferation assay, KM12; type: cell-based; conditions: Homo sapiens, read-out: IC50 Cell line KM12
Description: (§1) Selected compounds from the above examples were subjected to a standard cellular proliferation assay using seven different human tumour cell lines: A2780, A278CisF, CH1, CH1DoxR, HCT116, HT29 and KM12. […] Human tumour cell lines were obtained from the ATCC (American Type Culture Collection, 10801 University Boulevard, Manessas, Va. 20110-2209, USA). The results are shown in Table 1, together with the average IC50 over the seven different cell lines.

[1] = tested on: seven different human tumour cell lines: A2780, A278CisF, CH1, CH1DoxR, HCT116, HT29 and KM12; experiment: 72-h MTT proliferation assay, average over seven cell lines; type: cell-based; conditions: read-out: IC50 Cell line Average
Description: Selected compounds from the above examples were subjected to a standard cellular proliferation assay using seven different human tumour cell lines: A2780, A278CisF, CH1, CH1DoxR, HCT116, HT29 and KM12.

[2] = target: T1, cyclic AMP-dependent kinase (PKA) catalytic subunit (Homo sapiens, UniProt P17612); experiment: PKA kinase assay (Kemptide phosphorylation); type: biochemical; conditions: Table 2; read-out: Kinase inhibition PKA IC50
T1 construct: purchased Calbiochem 539487
Description: The reaction mixture (total volume 50 μl) consisted of 20 mM MOPS, pH 7.2, 25 mM β-glycerophosphate, 5 mM EGTA, 1 mM DTT, 1 mM Na3VO4, 10 mM MgCl2, 100 μM ATP, 0.2 μCi [γ-^32P]-ATP.

A2780 CisR = experiment: 72-h MTT proliferation assay, A2780 CisR; type: cell-based; conditions: Homo sapiens, A2780cisR, read-out: IC50 Cell line A2780 CisR
Description: as §1

CH1 = experiment: 72-h MTT proliferation assay, CH1; type: cell-based; conditions: Homo sapiens, read-out: IC50 Cell line CH1
Description: as §1

CH1DoxR = experiment: 72-h MTT proliferation assay, CH1DoxR; type: cell-based; conditions: Homo sapiens, read-out: IC50 Cell line CH1DoxR
Description: as §1

A2780 = experiment: 72-h MTT proliferation assay, A2780; type: cell-based; conditions: Homo sapiens, read-out: IC50 Cell line A2780
Description: as §1

mouse ERK-2 = target: T2, mouse ERK-2 (Mus musculus, UniProt P63085); experiment: ERK-2 kinase assay (MBP phosphorylation); type: biochemical; conditions: Table 2; read-out: Kinase inhibition ERK2 IC50
T2 construct: purchased Upstate Biotechnologies
T2 sequence (P63085 whole entry): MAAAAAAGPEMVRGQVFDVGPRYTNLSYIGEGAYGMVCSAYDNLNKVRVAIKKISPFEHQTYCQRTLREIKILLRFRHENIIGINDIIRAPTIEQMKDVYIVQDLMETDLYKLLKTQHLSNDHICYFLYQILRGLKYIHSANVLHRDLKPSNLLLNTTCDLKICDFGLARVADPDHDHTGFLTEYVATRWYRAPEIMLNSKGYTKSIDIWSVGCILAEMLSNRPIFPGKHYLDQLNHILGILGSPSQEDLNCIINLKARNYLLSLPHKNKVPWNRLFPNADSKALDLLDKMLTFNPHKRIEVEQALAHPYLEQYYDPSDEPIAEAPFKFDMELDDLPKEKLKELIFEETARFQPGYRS
Description: ERK-2 kinase activity was measured by the incorporation of radioactive phosphate into myelin basic protein (MBP), catalysed by purified mouse ERK-2 (Upstate Biotechnologies). The reaction mixture (total volume 50 μL) consisted of 20 mM MOPS, pH 7.0,25 mM β-glycerophosphate, 5 mM EGTA, 1 mM DTT, 1 mM Na3VO4, 10 mM MgCl2, 100 μM ATP, 0.2 μCi [γ-^32P]-ATP.

HT29 = experiment: 72-h MTT proliferation assay, HT29; type: cell-based; conditions: Homo sapiens, HT-29, read-out: IC50 Cell line HT29
Description: as §1

A549, HT29, Saos-2 = experiment: In vitro anti-proliferative activity, 72-h MTT, A549, HT29, Saos-2; type: cell-based; conditions: read-out: In vitro anti-proliferative activity (72-h MTT IC50), Cell lines: A549, HT29, Saos-2
HCT116 = experiment: 72-h MTT proliferation assay, HCT116; type: cell-based; conditions: Homo sapiens, HCT-116, read-out: IC50 Cell line HCT116
Description: as §1

Aqueous solubility = type: physicochemical; conditions: remark in Table 1; versus Roscovitine
Description: […]. […] […]

CDK4/cyclin D1 = CDK4/cyclin D1 (Homo sapiens, UniProt P11802); experiment: CDK4/cyclin D1 kinase assay (GST-Rb phosphorylation); type: biochemical; conditions: Table 2; read-out: Kinase inhibition CDK4/cyclin D1 IC50
Chain of CDK4/cyclin D1 (P11802 whole entry, species assumed): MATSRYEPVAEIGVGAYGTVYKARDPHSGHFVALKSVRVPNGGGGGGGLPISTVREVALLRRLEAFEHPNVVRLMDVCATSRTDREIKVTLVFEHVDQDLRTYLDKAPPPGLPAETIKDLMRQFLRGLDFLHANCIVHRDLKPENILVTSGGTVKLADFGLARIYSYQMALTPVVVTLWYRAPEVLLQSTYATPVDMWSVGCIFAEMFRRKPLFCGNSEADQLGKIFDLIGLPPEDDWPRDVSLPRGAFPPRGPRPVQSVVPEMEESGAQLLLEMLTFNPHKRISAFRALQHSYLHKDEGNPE
Chain of CDK4/cyclin D1 (P24385 whole entry partner, species assumed): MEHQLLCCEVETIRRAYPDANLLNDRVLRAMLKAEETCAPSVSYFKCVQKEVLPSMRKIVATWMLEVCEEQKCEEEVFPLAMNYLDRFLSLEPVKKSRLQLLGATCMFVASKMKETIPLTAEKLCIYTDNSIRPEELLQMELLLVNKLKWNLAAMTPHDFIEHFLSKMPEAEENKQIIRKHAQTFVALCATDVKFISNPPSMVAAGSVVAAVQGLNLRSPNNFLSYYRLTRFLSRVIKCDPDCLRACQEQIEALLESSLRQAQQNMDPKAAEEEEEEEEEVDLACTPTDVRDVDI
Description: Assays for CDK2/cyclin E kinase, CDK1/cyclin B and CDK4/cyclin D1 may be carried out by monitoring phosphorylation of GST-Rb in an appropriate system. […] The phosphorylation reaction mixture (total volume 40 μl) consisted of 50 mM HEPES pH 7.4, 20 mM MgCl2, 5 mM EGTA, 2 mM DTT, 20 mM β-glycerophosphate, 2 mM NaF, 1 mM Na3VO4, Protease Inhibitors Cocktail (Sigma, see above), BSA 0.5 mg/ml, 1 μg purified enzyme complex, 10 μl of GST-Rb-Sepharose-beads, 100 μM ATP, 0.2 μCi ^32P-ATP. The reaction is carried out for 30 min at 30° C. at constant shaking. At the end of this period 100 μl of 50 mM HEPES, pH 7.4 and 1 mM ATP is added to each well and the total volume transferred onto GFC filtered plate. The plate is washed 5 times with 200 μl of 50 mM HEPES, pH 7.4 and 1 mM ATP. To each well was added 50 μl scintillant liquid and the radioactivity of the samples is measured on Scintilation counter (Topcount, HP). The IC50 values of different peptides were calculated using GraFit software.

CDK7/cyclin H = CDK7/cyclin H (Homo sapiens, UniProt P50613); experiment: CDK7/cyclin H kinase inhibition; type: biochemical; conditions: Table 2
Chain of CDK7/cyclin H (P50613 whole entry, species assumed): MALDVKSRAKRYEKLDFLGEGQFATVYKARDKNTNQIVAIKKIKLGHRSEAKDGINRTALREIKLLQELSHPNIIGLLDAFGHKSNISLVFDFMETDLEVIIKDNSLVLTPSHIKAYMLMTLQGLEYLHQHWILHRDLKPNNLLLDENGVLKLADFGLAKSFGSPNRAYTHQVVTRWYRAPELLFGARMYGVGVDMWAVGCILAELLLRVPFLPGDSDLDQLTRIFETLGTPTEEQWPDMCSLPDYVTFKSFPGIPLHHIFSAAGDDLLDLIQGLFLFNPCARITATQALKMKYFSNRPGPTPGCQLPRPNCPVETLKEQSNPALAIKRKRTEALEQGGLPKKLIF
Chain of CDK7/cyclin H (P51946 whole entry partner, species assumed): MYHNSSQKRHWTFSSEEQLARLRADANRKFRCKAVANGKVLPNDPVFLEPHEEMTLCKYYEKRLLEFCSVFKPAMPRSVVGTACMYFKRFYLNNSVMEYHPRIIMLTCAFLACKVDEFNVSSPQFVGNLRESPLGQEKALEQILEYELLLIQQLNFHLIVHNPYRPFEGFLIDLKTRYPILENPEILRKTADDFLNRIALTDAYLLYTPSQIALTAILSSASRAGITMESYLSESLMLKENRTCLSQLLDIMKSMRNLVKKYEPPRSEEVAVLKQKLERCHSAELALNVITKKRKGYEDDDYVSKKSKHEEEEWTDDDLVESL

[3] = Pharmacokinetic analysis in mice

Structure (SMILES) | IC50 (KM12) | IC50 [1] | IC50 [2] | IC50 (A2780 CisR) | IC50 (CH1) | IC50 (CH1DoxR) | IC50 (A2780) | IC50 (mouse ERK-2) | IC50 (HT29) | IC50 (A549, HT29, Saos-2) | melting point | IC50 (HCT116) | PK remark: aqueous solubility (Aqueous solubility) | IC50 (CDK4/cyclin D1) | IC50 (CDK7/cyclin H) | AUC ([3]; mice, comparative value) | half-life ([3]; mouse, in vivo)
CC[C@H](CO)Nc1nc(NCc2ccccn2)c2ncn(C(C)C)c2n1 [Example 5, (R)-2-{9-Isopropyl-6-[(pyridin-2:ylmethyl)-amino]-9H-purin-2:ylamino}-butan-1-ol] | 38 µM | 31 µM | > 50 µM | 28 µM | 26 µM | 23 µM | 22 µM | 9.5 µM | 54 µM | 4.5 µM | 30 to 35 °C | 26 µM | Improved aqueous solubility | – | – | – | –
CC[C@H](CO)Nc1nc(NCc2ccncc2)c2ncn(C(C)C)c2n1 [Example 6, (R)-2-{9-Isopropyl-6-[(pyridin-4-ylmethyl)-amino]-9H-purin-2-ylamino}-butan-1-ol] | 7 µM | 17.3 µM | > 50 µM | 22 µM | 8.2 µM | 28 µM | 23 µM | – | 23 µM | 17 µM | 105 to 106 °C | 10 µM | Improved aqueous solubility | 30 µM | 0.74 µM | – | –
CC[C@H](CO)Nc1nc(NCc2ccccc2)c2ncn(C(C)C)c2n1 [Roscovitine] | – | – | – | – | – | – | – | – | – | – | – | – | – | – | – | 75454 nh-h/mL | 2.7 h
